Laboratory results: the supplement of paper PMC10307832

What was measured:
Assay in all cases: relative viability (nuclei count vs DMSO), 5 days (fraction); higher = more cells survive
[1] = system: EKVX
Summary of the method: (§1)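 Relative viability is defined as nuclei in treated wells over nuclei in vehicle wells. Duplicate plates were run and medians reported. Lung cancer cell lines in 1536-well plates were dosed by pin tool one day after seeding, with one drug or with a fixed anchor-drug dose plus five library-drug doses (not always all listed) in √10 steps, and nuclei were counted after 5 days.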

[2] = system: NCI-H1648
Summary of the method: as §1

[3] = system: RERF-LC-KJ
Summary of the method: as §1

[4] = system: NCI-H1993
Summary of the method: as §1

[5] = system: NCI-H2085
Summary of the method: as §1

[6] = system: NCI-H2126
Summary of the method: as §1

[7] = system: HCC-44
Summary of the method: as §1

[8] = system: ABC-1
Summary of the method: as §1

| SMILES | relative viability ([1]; first compound 0.005 µM) | relative viability ([1]; first compound 0.01581 µM) | relative viability ([1]; first compound 0.05 µM) | relative viability ([1]; first compound 0.1581 µM) | relative viability ([1]; first compound 0.5 µM) | relative viability ([2]; first compound 0.005 µM) | relative viability ([2]; first compound 0.01581 µM) | relative viability ([2]; first compound 0.05 µM) | relative viability ([2]; first compound 0.1581 µM) | relative viability ([2]; first compound 0.5 µM) | relative viability ([3]; first compound 0.005 µM) | relative viability ([3]; first compound 0.01581 µM) | relative viability ([3]; first compound 0.05 µM) | relative viability ([3]; first compound 0.1581 µM) | relative viability ([3]; first compound 0.5 µM) | relative viability ([4]; first compound 0.005 µM) | relative viability ([4]; first compound 0.01581 µM) | relative viability ([4]; first compound 0.05 µM) | relative viability ([4]; first compound 0.1581 µM) | relative viability ([4]; first compound 0.5 µM) | relative viability ([5]; first compound 0.005 µM) | relative viability ([5]; first compound 0.01581 µM) | relative viability ([5]; first compound 0.05 µM) | relative viability ([5]; first compound 0.1581 µM) | relative viability ([5]; first compound 0.5 µM) | relative viability ([6]; first compound 0.005 µM) | relative viability ([6]; first compound 0.01581 µM) | relative viability ([6]; first compound 0.05 µM) | relative viability ([6]; first compound 0.1581 µM) | relative viability ([6]; first compound 0.5 µM) | relative viability ([7]; first compound 0.005 µM) | relative viability ([7]; first compound 0.01581 µM) | relative viability ([7]; first compound 0.05 µM) | relative viability ([7]; first compound 0.1581 µM) | relative viability ([7]; first compound 0.5 µM) | relative viability ([8]; first compound 0.005 µM) | relative viability ([8]; first compound 0.01581 µM) | relative viability ([8]; first compound 0.05 µM) | relative viability ([8]; first compound 0.1581 µM) | relative viability ([8]; first compound 0.5 µM) |
| --- | --- | --- | --- | --- | --- | --- | --- | --- | --- | --- | --- | --- | --- | --- | --- | --- | --- | --- | --- | --- | --- | --- | --- | --- | --- | --- | --- | --- | --- | --- | --- | --- | --- | --- | --- | --- | --- | --- | --- | --- |
| COc1cc2nccc(Oc3ccc(NC(=O)Nc4cc(C)on4)c(Cl)c3)c2cc1OC [Tivozanib] + CC(=O)Nc1cccc(-n2c(=O)n(C3CC3)c(=O)c3c(Nc4ccc(I)cc4F)n(C)c(=O)c(C)c32)c1 [Trametinib] (partner 0.02 µM) | 0.32 | 0.467 | 0.477 | 0.292 | 0.345 | 0.478 | 0.604 | 0.473 | 0.442 | 0.429 | 0.758 | 0.989 | 0.805 | 0.859 | 0.805 | 0.562 | 0.354 | 0.625 | 0.63 | 0.502 | 0.51 | 0.602 | 0.543 | 0.437 | 0.511 | 0.595 | 0.556 | 0.567 | 0.444 | 0.555 | 0.992 | 1.09 | 1.05 | 1.09 | 1.07 | – | – | – | – | – |
| COc1cc2nccc(Oc3ccc(NC(=O)Nc4cc(C)on4)c(Cl)c3)c2cc1OC [Tivozanib] + CC(=O)c1c(C)c2cnc(Nc3ccc(N4CCNCC4)cn3)nc2n(C2CCCC2)c1=O [Palbociclib] (partner 0.5 µM) | 0.37 | 0.455 | 0.449 | 0.291 | 0.407 | 0.31 | 0.272 | 0.269 | 0.244 | 0.231 | 1.01 | 1.05 | 1.11 | 1.08 | 1.04 | 0.551 | 0.641 | 0.638 | 0.537 | 0.617 | 0.458 | 0.478 | 0.512 | 0.512 | 0.503 | 0.384 | 0.345 | 0.352 | 0.337 | 0.371 | 0.958 | 0.914 | 0.989 | 0.987 | 0.922 | 0.638 | 0.732 | 0.562 | 0.511 | 0.437 |
| COc1cc2nccc(Oc3ccc(NC(=O)Nc4cc(C)on4)c(Cl)c3)c2cc1OC [Tivozanib] + Nc1nc2[nH]cc(CCc3ccc(C(=O)N[C@@H](CCC(=O)O)C(=O)O)cc3)c2c(=O)[nH]1 [Pemetrexed] (partner 0.2 µM) | 0.377 | 0.408 | 0.394 | 0.432 | 0.355 | 0.723 | 0.704 | 0.778 | 0.652 | 0.546 | 0.465 | 0.441 | 0.479 | 0.465 | 0.439 | 0.572 | 0.467 | 0.674 | 0.499 | 0.662 | 0.925 | 0.964 | 0.872 | 0.9 | 0.899 | 0.692 | 0.684 | 0.691 | 0.582 | 0.589 | 0.651 | 0.62 | 0.687 | 0.802 | 0.627 | – | – | – | – | – |
